This passage reports IC50 results from patent US20230093099A1, “COMPOUNDS AND METHODS OF TREATING CANCERS” (CULLGEN (SHANGHAI), INC., priority 2019, published 2023).

The structures appear in SMILES notation.

The test deals with RS4;11 cells. Kind of test: Cell viability assay (CellTiter-Glo) in RS4;11 cells. The conditions noted are these: Homo sapiens, 72 h; RS4;11 cells; cell viability, 3 days, CellTiter-Glo; read-out: IC50. The class given is cell-based. In short, it runs like this:
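Three-day compound treatment of RS4;11 ALL cells (5000/well, 3-fold dilution series of 8 or 12 points), with IC50 from a nonlinear least-squares fit to CellTiter-Glo viability data.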
For `O=C(CN1CCC(n2cc(-c3cnc4cccc(-c5cc(F)c(CN6CCOCC6)c(F)c5)c4n3)cn2)CC1)NCCOCCOCCOCCOCCNc1cccc2c1C(=O)N(C1CCC(=O)NC1=O)C2=O` (stereo not shown) [JA-142, 2-[4-[4-[8-[3,5-Difluoro-4-(morpholinomethyl)phenyl]quinoxalin-2-yl]pyrazol-1-yl]-1-piperidyl]-N-[2-[2-[2-[2-[2-[[2-(2,6-dioxo-3-piperidyl)-1,3-dioxo-isoindolin-4-yl]amino]ethoxy]ethoxy]ethoxy]ethoxy]ethyl]acetamide], the IC50 is > 10 µM.
On to `O=C(CN1CCC(n2cc(-c3cnc4cccc(-c5cc(F)c(CN6CCOCC6)c(F)c5)c4n3)cn2)CC1)NCCOCCOCCOCCOCCOCCNc1cccc2c1C(=O)N(C1CCC(=O)NC1=O)C2=O` (stereo not shown) [JA-143, 2-[4-[4-[8-[3,5-Difluoro-4-(morpholinomethyl)phenyl]quinoxalin-2-yl]pyrazol-1-yl]-1-piperidyl]-N-[2-[2-[2-[2-[2-[2-[[2-(2,6-dioxo-3-piperidyl)-1,3-dioxo-isoindolin-4-yl]amino]ethoxy]ethoxy]ethoxy]ethoxy]ethoxy]ethyl]acetamide], for which the 50% inhibitory concentration (IC50) was > 10 µM.
Consider `O=C(CN1CCC(n2cc(-c3cnc4cccc(-c5cc(F)c(CN6CCOCC6)c(F)c5)c4n3)cn2)CC1)NCCNc1cccc2c1C(=O)N(C1CCC(=O)NC1=O)C2=O` (stereo not shown) [JA-144, 2-[4-[4-[8-[3,5-Difluoro-4-(morpholinomethyl)phenyl]quinoxalin-2-yl]pyrazol-1-yl]-1-piperidyl]-N-[2-[[2-(2,6-dioxo-3-piperidyl)-1,3-dioxo-isoindolin-4-yl]amino]ethyl]acetamide], for which the IC50 amounted to 2.39 µM.
With `O=C(CN1CCC(n2cc(-c3cnc4cccc(-c5cc(F)c(CN6CCOCC6)c(F)c5)c4n3)cn2)CC1)NCCCCNc1cccc2c1C(=O)N(C1CCC(=O)NC1=O)C2=O` (stereo not shown) [JA-146, 2-(4-(4-(8-(3,5-Difluoro-4-(morpholinomethyl)phenyl)quinoxalin-2-yl)-1H-pyrazol-1-yl)piperidin-1-yl)-N-(4-((2-(2,6-dioxopiperidin-3-yl)-1,3-dioxoisoindolin-4-yl)amino)butyl)acetamide], the IC50 was > 10 µM.
On to `O=C(CN1CCC(n2cc(-c3cnc4cccc(-c5cc(F)c(CN6CCOCC6)c(F)c5)c4n3)cn2)CC1)NCCCCCCNc1cccc2c1C(=O)N(C1CCC(=O)NC1=O)C2=O` (stereo not shown) [JA-147, 2-(4-(4-(8-(3,5-Difluoro-4-(morpholinomethyl)phenyl)quinoxalin-2-yl)-1H-pyrazol-1-yl)piperidin-1-yl)-N-(6-((2-(2,6-dioxopiperidin-3-yl)-1,3-dioxoisoindolin-4-yl)amino)hexyl)acetamide], for which the IC50 was > 10 µM.
Under `O=C(CN1CCC(n2cc(-c3cnc4cccc(-c5cc(F)c(CN6CCOCC6)c(F)c5)c4n3)cn2)CC1)NCCCCCCCNc1cccc2c1C(=O)N(C1CCC(=O)NC1=O)C2=O` (stereo not shown) [JA-148, 2-(4-(4-(8-(3,5-Difluoro-4-(morpholinomethyl)phenyl)quinoxalin-2-yl)-1H-pyrazol-1-yl)piperidin-1-yl)-N-(7-((2-(2,6-dioxopiperidin-3-yl)-1,3-dioxoisoindolin-4-yl)amino)heptyl)acetamide] stands > 10 µM; under `O=C(CN1CCC(n2cc(-c3cnc4cccc(-c5cc(F)c(CN6CCOCC6)c(F)c5)c4n3)cn2)CC1)NCCCCCCCCNc1cccc2c1C(=O)N(C1CCC(=O)NC1=O)C2=O` (stereo not shown) [JA-149, 2-(4-(4-(8-(3,5-Difluoro-4-(morpholinomethyl)phenyl)quinoxalin-2-yl)-1H-pyrazol-1-yl)piperidin-1-yl)-N-(8-((2-(2,6-dioxopiperidin-3-yl)-1,3-dioxoisoindolin-4-yl)amino)octyl)acetamide], > 10 µM.
In the case of `Cc1ncsc1-c1ccc(CNC(=O)[C@@H]2C[C@@H](O)CN2C(=O)[C@@H](NC(=O)CCCCCCCCCCNC(=O)CN2CCC(n3cc(-c4cnc5cccc(-c6cc(F)c(CN7CCOCC7)c(F)c6)c5n4)cn3)CC2)C(C)(C)C)cc1` [JA-150, (2S,4R)-1-((S)-2-(11-(2-(4-(4-(8-(3,5-Difluoro-4-(morpholinomethyl)phenyl)quinoxalin-2-yl)-1H-pyrazol-1-yl)piperidin-1-yl)acetamido)undecanamido)-3,3-dimethylbutanoyl)-4-hydroxy-N-(4-(4-methylthiazol-5-yl)benzyl)pyrrolidine-2-carboxamide] it was 2.25 µM.
Under `Cc1ncsc1-c1ccc(CNC(=O)[C@@H]2C[C@@H](O)CN2C(=O)[C@@H](NC(=O)CCOCCOCCOCCNC(=O)CN2CCC(n3cc(-c4cnc5cccc(-c6cc(F)c(CN7CCOCC7)c(F)c6)c5n4)cn3)CC2)C(C)(C)C)cc1` [JA-151, (2S,4R)-1-((S)-17-(tert-Butyl)-1-(4-(4-(8-(3,5-difluoro-4-(morpholinomethyl)phenyl)quinoxalin-2-yl)-1H-pyrazol-1-yl)piperidin-1-yl)-2,15-dioxo-6,9,12-trioxa-3,16-diazaoctadecan-18-oyl)-4-hydroxy-N-(4-(4-methylthiazol-5-yl)benzyl)pyrrolidine-2-carboxamide] stands > 10 µM; under `Cc1ncsc1-c1ccc(CNC(=O)[C@@H]2C[C@@H](O)CN2C(=O)[C@@H](NC(=O)CCCNC(=O)CN2CCC(n3cc(-c4cnc5cccc(-c6cc(F)c(CN7CCOCC7)c(F)c6)c5n4)cn3)CC2)C(C)(C)C)cc1` [JA-152, (2S,4R)-1-((S)-2-(4-(2-(4-(4-(8-(3,5-Difluoro-4-(morpholinomethyl)phenyl)quinoxalin-2-yl)-1H-pyrazol-1-yl)piperidin-1-yl)acetamido)butanamido)-3,3-dimethylbutanoyl)-4-hydroxy-N-(4-(4-methylthiazol-5-yl)benzyl)pyrrolidine-2-carboxamide], > 10 µM; under `Cc1ncsc1-c1ccc(CNC(=O)[C@@H]2C[C@@H](O)CN2C(=O)[C@@H](NC(=O)COCCNC(=O)CN2CCC(n3cc(-c4cnc5cccc(-c6cc(F)c(CN7CCOCC7)c(F)c6)c5n4)cn3)CC2)C(C)(C)C)cc1` [JA-153, (2S,4R)-1-((S)-2-(2-(2-(2-(4-(4-(8-(3,5-Difluoro-4-(morpholinomethyl)phenyl)quinoxalin-2-yl)-1H-pyrazol-1-yl)piperidin-1-yl)acetamido)ethoxy)acetamido)-3,3-dimethylbutanoyl)-4-hydroxy-N-(4-(4-methylthiazol-5-yl)benzyl)pyrrolidine-2-carboxamide], > 10 µM.
Consider `O=C(CN1CCC(n2cc(-c3cnc4cccc(-c5cc(F)c(CN6CCOCC6)c(F)c5)c4n3)cn2)CC1)NCCCNc1cccc2c1C(=O)N(C1CCC(=O)NC1=O)C2=O` (stereo not shown) [JA-154, 2-(4-(4-(8-(3,5-Difluoro-4-(morpholinomethyl)phenyl)quinoxalin-2-yl)-1H-pyrazol-1-yl)piperidin-1-yl)-N-(3-((2-(2,6-dioxopiperidin-3-yl)-1,3-dioxoisoindolin-4-yl)amino)propyl)acetamide], for which the IC50 worked out at 1.41 µM.
Under `Cc1ncsc1-c1ccc(CNC(=O)[C@@H]2C[C@@H](O)CN2C(=O)[C@@H](NC(=O)CCNC(=O)CN2CCC(n3cc(-c4cnc5cccc(-c6cc(F)c(CN7CCOCC7)c(F)c6)c5n4)cn3)CC2)C(C)(C)C)cc1` [JA-155, (2S,4R)-1-((S)-2-(3-(2-(4-(4-(8-(3,5-Difluoro-4-(morpholinomethyl)phenyl)quinoxalin-2-yl)-1H-pyrazol-1-yl)piperidin-1-yl)acetamido)propanamido)-3,3-dimethylbutanoyl)-4-hydroxy-N-(4-(4-methylthiazol-5-yl)benzyl)pyrrolidine-2-carboxamide] stands > 10 µM.
